Reference: patent publication US12102432B2, “Uses of transdermal glomerular filtration rate measurement in continuous renal replacement therapy” (MediBeacon Inc., priority 2018, dated 2024)
Where “and” joins values, the source holds several entries; their conditions need not be identical. Identical values can stand only once.

Legend:
[1] = Meropenem infusion in porcine model before CRRT, blood concentration; format: in vivo, Swine; settings: infused for 30 minutes
Protocol: Swine (3 male and 3 female, for both CVVH and CVVHD modalities) weighing 35-40 kg were used. In this model, a total functional nephrectomy was achieved by ligation of all renal arteries. Animals were inspected by professional veterinary staff within 48 hours of arrival. Any underlying infections or parasitism was treated based on veterinary recommendations. After taking a pre-MB-102 blood sample (baseline), a dose of 6 mg/kg of MB-102 was injected as a single bolus, followed by a 90 minute period of equilibration, to allow for MB-102 systemic redistribution (see FIGS. 7 and 13 for equilibration of fluorescent signal detected by the renal monitoring assembly). Thirty minutes after the MB-102 injection, Meropenum was infused for 30 minutes, which reached a peak concentration in blood ˜1 hr after the start of the infusion. […] Samples collected during these periods, along with the baseline (BSL) sample taken before the MB-102 dose, were assayed, and measured values were used in calculations to compare clearance rates with real-time MB-102 clearance measurements. […] A similar sample collection time-course was initiated at the high flow rate for both the low and high effluent flow rate data sets (seven sample time points at three circuit sites), allowing for similar comparisons of real-time and calculated clearance rates.

[2] = Adsorption of MB-102 to CRRT apparatus, in vitro CVVH model; format: in vitro ADME, bovine; settings: for mean percent change at the end of experiment: average of 6 experiments, 60 min; for percent change at the end of each experiment: single experiments 1-6, initial to 60 min, blood flow 200 mL/min, Quf 33 mL/min
Protocol: As an initial step, it was determined if the compound MB-102 adsorbs onto the hemodiafilter, tubing or other parts of the CRRT instrument. This study used a continuous venovenous hemofiltration (CVVH) configuration to assess MB-102 adsorptive clearance with a previously validated in vitro CVVH model using 1 L of pH regulated, citrate-anti-coagulated bovine blood. Using a Braun DIAPACT™ CRRT system, two different hemodiafilters were tested: the HF1400 and the M150 hemodiafilters. New bovine blood, hemodiafilters, and CRRT tubing sets were used in each experiment. The blood was continuously stirred and maintained at 37° C. in a water bath during all experiments. Reconstituted MB-102 was added to the blood to achieve a final concentration of ˜6.2 mg/L. Urea was used as a control and added to the blood to produce a blood urea nitrogen (BUN) concentration of ˜75 mg/dL. Blood flow rates of 200 mL/min with an ultrafiltration rate (Quf) of 33 mL/min were tested. This maximized MB-102 contact with the membranes, both on the blood side and via convection through the hemodiafilter membrane. A closed system was developed to maintain a constant volume in the extracorporeal system. The effluent was used as the replacement fluid which was returned to the blood as a post-filter replacement fluid to maintain a constant blood volume. The CRRT instrument was primed with normal saline before operation, consequently the urea and MB-102 dilution caused by the residual priming solution was accounted for. Blood samples were collected from the pre-filter port at 0 (baseline), 5 (at which time mixing was complete), 10, 20, 30, and 60 minutes. Each experiment was repeated six times with new hemodiafilters and tubing sets.
Equations used to calculate the dilution factor and adsorption are as follows:
[formula] wherein C0 is the concentration of MB-102 in the pre-filter at time=0 minutes; and C60 is the concentration of MB-102 in the pre-filter at time=60 minutes.
[formula] where [Urea0] is the urea concentration in the pre-filter at time=0 minutes; and [Urea60] is the urea concentration in the pre-filter at time=60 minutes.
All blood samples were collected and centrifuged at 3000 rpm for 10 minutes. The plasma and effluent samples were transferred to cryovials in duplicate and stored at −80° C. until analysis. BUN concentrations were analyzed with Advia 1800 (Siemens Healthcare Diagnostic Inc., Tarrytown, N.Y., USA) having a lower limit of quantification of 5 mg/dL. […]

[3] = In vitro continuous hemofiltration (CVVH) model, sieving coefficient; format: in vitro ADME, bovine; settings: CVVH
Protocol: The procedure for the CVVH study was conducted using the model CVVH system illustrated in FIG. 5. The CLTM of urea and MB-102 were evaluated with different blood flow rates, ultrafiltration rate (Quf) and hemodiafilters (Table 1). In a closed-loop system, the formed effluent was returned to the blood as a post-filter replacement fluid downstream from the post-hemodiafilter blood sampling port. Pre- and post-hemodiafilter blood samples, and effluent samples were collected concurrently. Six experiments were conducted for each hemodiafilter, and new hemodiafilters and CRRT apparatus were used for each experiment. Sieving coefficient (SC) and CLTM were calculated as follows:
[formula] where Sc is the sieving coefficient; Cuf is the concentration in the effluent; Ca is the concentration of the solute in the pre-filter; and Cv is the concentration of the solute in the post-filter. CLconv=SC×QUF Equation (4) wherein CLconv is the convective clearance for the post-filter replacement; QUF is the ultrafiltration rate.
(§1) All blood samples were collected and centrifuged at 3000 rpm for 10 minutes. The plasma and effluent samples were transferred to cryovials in duplicate and stored at −80° C. until analysis. BUN concentrations were analyzed with Advia 1800 (Siemens Healthcare Diagnostic Inc., Tarrytown, N.Y., USA) having a lower limit of quantification of 5 mg/dL.
(§2) Similarly, six CVVH and CVVHD experiments with each hemodiafilter were used to detect a 25% difference in MB-102 CLTM between hemodiafilters. Assumptions used in these calculations included: a power of 90% and a standard deviation of 10% with a significance level of p<0.05. A two-tailed, unpaired t-test was used to compare differences between the two hemodiafilters, and the analysis of variance was used to compare different QUF and Qd within each hemodiafilter type.

[4] = In vitro continuous hemodialysis (CVVHD) model, saturation coefficient; format: in vitro ADME, bovine; settings: for Saturation coefficient (mean ± SD): CVVHD, blood flow 200 mL/min
Protocol: For CVVHD experiments, the CLTM was assessed using a previously validated in vitro CVVHD model as illustrated in FIG. 6. Commonly used effluent flow rates of 16, 33, 50, and 100 mL/min, and a blood flow rate of 200 mL/min were used. Effluent was prepared according to directions from the manufacturer by mixing sodium bicarbonate powder (NATURALYTE® 4000, Fresenius Medical Care, Waltham, Mass., USA) with distilled water in a 45:1 ratio. After adding MB-102 and urea to the blood, it was recirculated through the circuit for 5 min for uniform coating of the extracorporeal circuit. A single-pass mode of the CVVHD procedure with four different flow rates was run in random order for each hemodiafilter. Blood samples were collected from the pre- and post-filter ports, and spent effluent samples were taken from the effluent port 5 min after initiation of the CVVHD experiments at all four effluent flow rates. These experiments were conducted on 6 new hemodiafilters and CRRT tubing sets. Saturation coefficient (SA) and CLTM were calculated as follows:
[formula] CLdiff=(SA×Qd) Equation (6)
where SA is the saturation coefficient; CUF is the concentration in the effluent; Ca is the concentration of the solute in the pre-filter; CV is the concentration of the solute in the post-filter; CLdiff is the diffusion clearance for post-filter replacement; Qd is the effluent flow rate.
as §1, §2

## C[C@@H](O)[C@H]1C(=O)N2C(C(=O)O)=C(S[C@@H]3CN[C@H](C(=O)N(C)C)C3)[C@H](C)[C@H]12 [Meropenem, meropenem]
[1]
  time to peak concentration in blood after the start of the infusion: ~1 h

## NC(N)=O [Urea, reference compound]
[2]; HF1400 hemodiafilter
  mean percent change at the end of experiment: 19.5%
  percent change at the end of each experiment: 19.6% and 20.9% and 18.6% and 20.0% and 18.2%
[2]; M150 hemodiafilter
  mean percent change at the end of experiment: 19.3%
  percent change at the end of each experiment: 17.5% and 19.5% and 21.7% and 18.0% and 17.0% and 22.0%
[3]; HF1400, ultrafiltration rate 16.7 mL/min
  Mean sieving coefficient: 1.08 ± 0.03
[3]; HF1400, ultrafiltration rate 33.3 mL/min
  Mean sieving coefficient: 1.09 ± 0.05
[3]; HF1400, ultrafiltration rate 50 mL/min
  Mean sieving coefficient: 1.08 ± 0.07
[3]; M150, ultrafiltration rate 16.7 mL/min
  Mean sieving coefficient: 1.00 ± 0.05
[3]; M150, ultrafiltration rate 33.3 mL/min
  Mean sieving coefficient: 1.04 ± 0.10
[3]; M150, ultrafiltration rate 50 mL/min
  Mean sieving coefficient: 1.05 ± 0.04
[4]; HF1400, Qd 16.7 mL/min
  Saturation coefficient (mean ± SD): 1.04 ± 0.07
[4]; HF1400, Qd 33.3 mL/min
  Saturation coefficient (mean ± SD): 1.19 ± 0.09
[4]; HF1400, Qd 50 mL/min
  Saturation coefficient (mean ± SD): 1.17 ± 0.11
[4]; HF1400, Qd 100 mL/min
  Saturation coefficient (mean ± SD): 1.17 ± 0.19
[4]; M150, Qd 16.7 mL/min
  Saturation coefficient (mean ± SD): 1.08 ± 0.08
[4]; M150, Qd 33.3 mL/min
  Saturation coefficient (mean ± SD): 1.16 ± 0.04
[4]; M150, Qd 50 mL/min
  Saturation coefficient (mean ± SD): 1.15 ± 0.15
[4]; M150, Qd 100 mL/min
  Saturation coefficient (mean ± SD): 1.35 ± 0.20
[4]; low effluent flow rates (16-50 mL/min)
  mean SA values: approximately unity
